Values joined by “and” are separate entries in the source; they are usually repeats but may differ in a detail not shown here. Identical values can stand only once.
Legend:
Format in all cases: cell-based
Gaeumannomyces graminis = Gaeumannomyces graminis growth inhibition, microtiter plate, photometric
Method: Mycelial fragments of the fungus from cryogenic storage were directly mixed into nutrient broth (potato dextrose broth). After placing a (DMSO) solution of the test compounds into a microliter plate (96-well format) the nutrient broth containing the fungal spores was added.

[1] = tested on: Glomerella lagenarium (syn. Colletotrichum lagenarium); experiment: Glomerella lagenarium (Anthracnose of Cucurbits) growth inhibition, microtiter plate, photometric; details: alone
Method: Glomerella lagenarium (syn. Colletotrichum lagenarium), Anthracnose of Cucurbits:
(§1) Conidia of the fungus from cryogenic storage were directly mixed into nutrient broth (potato dextrose broth). After placing a (DMSO) solution of the test compounds into a microtiter plate (96-well format) the nutrient broth containing the fungal spores was added.

Rhizoctonia solani = Rhizoctonia solani (Foot Rot, Damping-Off) growth inhibition, microtiter plate, photometric; details: applied alone
Method: Rhizoctonia solani (Foot Rot, Damping-Off):
Mycelial fragments of the fungus from cryogenic storage were directly mixed into nutrient broth (potato dextrose broth). After placing a (DMSO) solution of the test compounds into a microtiter plate (96-well format) the nutrient broth containing the fungal spores was added.

Septoria tritici = Septoria tritici (Leaf Blotch) growth inhibition, microtiter plate, photometric
Method: Septoria tritici (Leaf Blotch):
as §1

[2] = tested on: Mycosphaerella arachidis (syn. Cercospora arachidicola); experiment: Mycosphaerella arachidis (Brown Leaf Spot of Groundnut) growth inhibition, microtiter plate, photometric; details: alone
Method: Mycosphaerella arachidis (syn. Cercospora arachidicola), Brown Leaf Spot of Groundnut (Peanut):
as §1

Fusarium culmorum = Fusarium culmorum (Root Rot) growth inhibition, microtiter plate, photometric; details: alone, 2 PPM AI
Method: Fusarium culmorum (Root Rot):
as §1

C#CCOc1ccc(CCNC(=O)C(OCC#C)c2ccc(Cl)cc2)cc1OC (stereo not drawn) [Mandipropamid, reference compound]
AVERAGE DEAD IN % (Gaeumannomyces graminis; single compound at 0.25 ppm AI): 0% | AVERAGE DEAD IN % (Gaeumannomyces graminis; single compound at 0.5 ppm AI): 0% | AVERAGE DEAD IN % (Gaeumannomyces graminis; single compound at 1 ppm AI): 0%

CO/C=C(\C(=O)OC)c1ccccc1Oc1cc(Oc2ccccc2C#N)ncn1 [Azoystrobin]
AVERAGE DEAD IN % ([1]; 0.0078125 ppm AI): 0% | AVERAGE DEAD IN % ([1]; 0.015625 ppm AI): 50% | AVERAGE DEAD IN % ([1]; 0.03125 ppm AI): 50% | AVERAGE DEAD IN % ([1]; 0.0625 ppm AI): 70%

CC(C1CC1)C(O)(Cn1cncn1)c1ccc(Cl)cc1 (stereo not drawn) [Cyproconazole]
AVERAGE DEAD IN % (Rhizoctonia solani; 0.25 ppm AI): 20% | AVERAGE DEAD IN % (Rhizoctonia solani; 2 ppm AI): 70% and 100% | AVERAGE DEAD IN % (Gaeumannomyces graminis; single compound at 0.25 ppm AI): 20% | AVERAGE DEAD IN % (Gaeumannomyces graminis; single compound at 0.5 ppm AI): 50% and 90% | AVERAGE DEAD IN % (Gaeumannomyces graminis; single compound at 1 ppm AI): 70% | AVERAGE DEAD IN % (Gaeumannomyces graminis; single compound at 2 ppm AI): 90% | AVERAGE DEAD IN % (Septoria tritici; 0.25 ppm AI, alone): 20% | AVERAGE DEAD IN % (Septoria tritici; 0.5 ppm AI, alone): 50% | AVERAGE DEAD IN % (Septoria tritici; 1 ppm AI, alone): 70% | AVERAGE DEAD IN % (Septoria tritici; 2 ppm AI, alone): 90% | AVERAGE DEAD IN % Cyproconazole (Septoria tritici; Cyproconazole alone, 0.5 ppm AI): 50% | AVERAGE DEAD IN % Cyproconazole (Septoria tritici; Cyproconazole alone, 1 ppm AI): 70% | AVERAGE DEAD IN % Cyproconazole (Septoria tritici; Cyproconazole alone, 2 ppm AI): 90% | AVERAGE DEAD IN % (Septoria tritici; alone, 0.25 ppm AI): 0% | AVERAGE DEAD IN % (Septoria tritici; alone, 0.5 ppm AI): 50% | AVERAGE DEAD IN % (Septoria tritici; alone, 1 ppm AI): 70% | AVERAGE DEAD IN % (Septoria tritici; alone, 2 ppm AI): 70% | AVERAGE DEAD IN % ([2]; 0.125 ppm AI): 70% | AVERAGE DEAD IN % ([2]; 0.0625 PPM AI): 0% | AVERAGE DEAD IN % ([2]; 0.125 PPM AI): 20% | AVERAGE DEAD IN % ([2]; 0.25 PPM AI): 70% and 100% | AVERAGE DEAD IN % ([2]; 0.5 PPM AI): 100% | AVERAGE DEAD IN % (Fusarium culmorum): 20%

From US20120324604A1, “PESTICIDAL MIXTURES CONTAINING ISOXAZOLINE DERIVATIVES AND A FUNGICIDE” (priority 2010, published 2012)
